Test results published in US20120172359A1 (NOVARTIS AG, priority 2010, published 2012).
Where a name gives a salt, the structure may show the parent alone.

The compounds below were run against Human BACE-1 (Homo sapiens, UniProt P56817) (assay: Test 1: Inhibition of Human BACE-1). Details: Test 1; recombinant BACE-1 (extracellular domain), acetate buffer pH 4.5, 1 hour with test compound at room temperature, fluorescence-quenched peptide substrate; read-out: Bace IC50.
Assay type: biochemical

Sequence of Human BACE-1 (P56817 46-457 limits assumed): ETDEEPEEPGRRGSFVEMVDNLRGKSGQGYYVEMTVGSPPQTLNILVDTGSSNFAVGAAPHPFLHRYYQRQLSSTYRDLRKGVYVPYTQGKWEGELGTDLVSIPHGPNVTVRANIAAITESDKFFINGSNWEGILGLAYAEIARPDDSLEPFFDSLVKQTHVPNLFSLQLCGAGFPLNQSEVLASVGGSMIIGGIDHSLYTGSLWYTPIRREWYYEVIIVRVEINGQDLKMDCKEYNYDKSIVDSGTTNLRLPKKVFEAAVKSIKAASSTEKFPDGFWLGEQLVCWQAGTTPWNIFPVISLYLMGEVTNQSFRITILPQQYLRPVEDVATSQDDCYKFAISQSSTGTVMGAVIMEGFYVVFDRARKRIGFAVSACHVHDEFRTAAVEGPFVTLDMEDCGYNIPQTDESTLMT

SMILES | IC50 [µM]
NC1=N[C@@](c2cc(NC(=O)c3ncc(Br)cc3O)ccc2F)(C(F)F)COC1 [Example 119, 5-Bromo-3-hydroxy-pyridine-2-carboxylic acid [3-((R)-5-amino-3-difluoromethyl-3,6-dihydro-2H-[1,4]oxazin-3-yl)-4-fluoro-phenyl]-amide hydrochloride] | 0.01
CCOc1ccc(C(=O)Nc2ccc(F)c([C@]3(C(F)F)COCC(N)=N3)c2)nc1 [Example 120, 5-Ethoxy-pyridine-2-carboxylic acid [3-((R)-5-amino-3-difluoromethyl-3,6-dihydro-2H-[1,4]oxazin-3-yl)-4-fluoro-phenyl]-amide] | 0.18
NC1=N[C@@](c2cc(NC(=O)c3ncc(Br)cn3)ccc2F)(C(F)F)COC1 [Example 121, 5-Bromo-pyrimidine-2-carboxylic acid [3-((R)-5-amino-3-difluoromethyl-3,6-dihydro-2H-[1,4]oxazin-3-yl)-4-fluoro-phenyl]-amide hydrochloride] | 0.036
NC1=N[C@@](c2cc(NC(=O)c3cnc(C(F)F)cn3)ccc2F)(C(F)F)COC1 [Example 122, 5-Difluoromethyl-pyrazine-2-carboxylic acid [3-((R)-5-amino-3-difluoromethyl-3,6-dihydro-2H-[1,4]oxazin-3-yl)-4-fluoro-phenyl]-amide hydrochloride] | 0.2
NC1=N[C@@](c2cc(NC(=O)c3cnc(OCC(F)F)cn3)ccc2F)(C(F)F)COC1 [Example 123, 5-(2,2-Difluoro-ethoxy)-pyrazine-2-carboxylic acid [3-((R)-5-amino-3-difluoromethyl-3,6-dihydro-2H-[1,4]oxazin-3-yl)-4-fluoro-phenyl]-amide hydrochloride] | 0.097
NC1=N[C@@](c2cc(NC(=O)c3cnc(OCC(F)(F)F)cn3)ccc2F)(C(F)F)COC1 [Example 124, 5-(2,2,2-Trifluoro-ethoxy)-pyrazine-2-carboxylic acid [3-((R)-5-amino-3-difluoromethyl-3,6-dihydro-2H-[1,4]oxazin-3-yl)-4-fluoro-phenyl]-amide hydrochloride] | 0.025
NC1=N[C@@](c2cc(NC(=O)c3cc(Br)co3)ccc2F)(C(F)F)COC1 [Example 125, 4-Bromo-furan-2-carboxylic acid [3-((R)-5-amino-3-difluoromethyl-3,6-dihydro-2H-[1,4]oxazin-3-yl)-4-fluoro-phenyl]-amide hydrochloride] | 0.078
NC1=N[C@@](c2cc(NC(=O)c3cc4ccccn4n3)ccc2F)(C(F)F)COC1 [Example 126, Pyrazolo[1,5-a]pyridine-2-carboxylic acid [3-((R)-5-amino-3 difluoromethyl-3,6-dihydro-2H [1,4]oxazin-3-yl)-4-fluoro-phenyl]-amide hydrochloride] | 0.74
Cc1nc(C(=O)Nc2ccc(F)c([C@]3(C(F)F)COCC(N)=N3)c2)co1 [Example 127, 2-Methyl-oxazole-4-carboxylic acid [3-((R)-5-amino-3-difluoromethyl-3,6-dihydro-2H-[1,4]oxazin-3-yl)-4-fluoro-phenyl]-amide hydrochloride] | 0.098
Cc1nc(C(=O)Nc2ccc(F)c([C@]3(C(F)F)COCC(N)=N3)c2)c(C)o1 [Example 128, 2,5-Dimethyl-oxazole-4-carboxylic acid [3-((R)-5-amino-3-difluoromethyl-3,6-dihydro-2H-[1,4]oxazin-3-yl)-4-fluoro-phenyl]-amide] | 0.17
COc1cc(Br)cnc1C(=O)Nc1ccc(F)c([C@]2(C(F)F)COCC(N)=N2)c1 [Example 130, 5-Bromo-3-methoxy-pyridine-2-carboxylic acid [3-((R)-5-amino-3-difluoromethyl-3,6-dihydro-2H-[1,4]oxazin-3-yl)-4-fluoro-phenyl]-amide hydrochloride] | 0.093
CCc1nc(C(=O)Nc2ccc(F)c([C@]3(C(F)F)COCC(N)=N3)c2)co1 [Example 131, 2-Ethyl-oxazole-4-carboxylic acid [3-((R)-5-amino-3-difluoromethyl-3,6-dihydro-2H-[1,4]oxazin-3-yl)-4-fluoro-phenyl]-amide hydrochloride] | 0.33
NC1=N[C@@](c2cc(NC(=O)c3ccc(C(F)F)cn3)ccc2F)(C(F)F)COC1 [Example 132, 5-Difluoromethyl-pyridine-2-carboxylic acid [3-((R)-5-amino-3-difluoromethyl-3,6-dihydro-2H-[1,4]oxazin-3-yl)-4-fluoro-phenyl]-amide hydrochloride] | 0.087
Cn1ccnc1C(=O)Nc1ccc(F)c([C@]2(C(F)F)COCC(N)=N2)c1 [Example 133, 1-Methyl-1H-imidazole-2 carboxylic acid [3-((R)-5-amino-3 difluoromethyl-3,6-dihydro-2H [1,4]oxazin-3-yl)-4-fluoro-phenyl]-amide hydrochloride] | 1
NC1=N[C@@](c2cc(NC(=O)c3ccc(O)nn3)ccc2F)(C(F)F)COC1 [Example 134, 6-Hydroxy-pyridazine-3-carboxylic acid [3-((R)-5-amino-3-difluoromethyl-3,6-dihydro-2H-[1,4]oxazin-3-yl)-4-fluoro-phenyl]-amide hydrochloride] | 0.26
COCCOc1cnc(C(=O)Nc2ccc(F)c([C@]3(C(F)F)COCC(N)=N3)c2)cn1 [Example 135, 5-(2-Methoxy-ethoxy)-pyrazine-2-carboxylic acid [3-((R)-5-amino-3-difluoromethyl-3,6-dihydro-2H-[1,4]oxazin-3-yl)-4-fluoro-phenyl]-amide hydrochloride] | 0.045
NC1=N[C@@](c2cc(NC(=O)c3cnc(OCCF)cn3)ccc2F)(C(F)F)COC1 [Example 136, 5-(2-Fluoro-ethoxy)-pyrazine-2-carboxylic acid [3-((R)-5-amino-3-difluoromethyl-3,6-dihydro-2H-[1,4]oxazin-3-yl)-4-fluoro-phenyl]-amide hydrochloride] | 0.13
NC1=N[C@@](c2cc(NC(=O)c3ccc(Cl)cn3)ccc2F)(C(F)F)COC1 [Example 137, 5-Chloro-pyridine-2-carboxylic acid [3-((R)-5-amino-3-difluoromethyl-3,6-dihydro-2H-[1,4]oxazin-3-yl)-4-fluoro-phenyl]-amide hydrochloride] | 0.03
NC1=N[C@@](c2cc(NC(=O)c3ccc(OC(F)F)cn3)ccc2F)(C(F)F)COC1 [Example 138, 5-Difluoromethoxy-pyridine-2-carboxylic acid [3-((R)-5-amino-3-difluoromethyl-3,6-dihydro-2H-[1,4]oxazin-3-yl)-4-fluoro-phenyl]-amide hydrochloride] | 0.042
NC1=N[C@@](c2cc(NC(=O)c3ccc(OCF)cn3)ccc2F)(C(F)F)COC1 [Example 139, 5-Fluoromethoxy-pyridine-2-carboxylic acid [3-((R)-5-amino-3-difluoromethyl-3,6-dihydro-2H-[1,4]oxazin-3-yl)-4-fluoro-phenyl]-amide] | 0.075
NC1=N[C@@](c2cc(NC(=O)c3ncc(Cl)cc3F)ccc2F)(C(F)F)COC1 [Example 140, 5-Chloro-3-fluoro-pyridine-2-carboxylic acid [3-((R)-5-amino-3-difluoromethyl-3,6-dihydro-2H-[1,4]oxazin-3-yl)-4-fluoro-phenyl]-amide] | 0.043
NC1=N[C@@](c2cc(NC(=O)c3cnc(Cl)cn3)ccc2F)(C(F)F)COC1 [Example 141, 5-Chloro-pyrazine-2-carboxylic acid [3-((R)-5-amino-3-difluoromethyl-3,6-dihydro-2H-[1,4]oxazin-3-yl)-4-fluoro-phenyl]-amide] | 0.033
Cc1cc(C(=O)Nc2ccc(F)c([C@]3(C(F)F)COCC(N)=N3)c2)n[nH]1 [Example 142, 5-Methyl-1H-pyrazole-3-carboxylic acid [3-((R)-5-amino-3-difluoromethyl-3,6-dihydro-2H-[1,4]oxazin-3-yl)-4-fluoro-phenyl]-amide hydrochloride] | 0.82
Cc1ccc(C(=O)Nc2ccc(F)c([C@]3(C(F)F)COCC(N)=N3)c2)nc1 [Example 143, 5-Methyl-pyridine-2-carboxylic acid [3-((R)-5-amino-3-difluoromethyl-3,6-dihydro-2H-[1,4]oxazin-3-yl)-4-fluoro-phenyl]-amide hydrochloride] | 0.11
NC1=N[C@@](c2cc(NC(=O)c3cnc(O)cn3)ccc2F)(C(F)F)COC1 [Example 145, 5-Hydroxy-pyrazine-2-carboxylic acid [3-((R)-5-amino-3-difluoromethyl-3,6-dihydro-2H-[1,4]oxazin-3-yl)-4-fluoro-phenyl]-amide hydrochloride] | 0.34
COc1cnc(C(=O)Nc2ccc(F)c([C@]3(C(F)F)COCC(N)=N3)c2)cn1 [Example 146, 5-Methoxy-pyrazine-2-carboxylic acid [3-((R)-5-amino-3-difluoromethyl-3,6-dihydro-2H-[1,4]oxazin-3-yl)-4-fluoro-phenyl]-amide hydrochloride] | 0.1
Cc1nc(C(=O)Nc2ccc(F)c([C@]3(C(F)F)COCC(N)=N3)c2)cs1 [Example 148, 2-Methyl-thiazole-4-carboxylic acid [3-((R)-5-amino-3-difluoromethyl-3,6-dihydro-2H-[1,4]oxazin-3-yl)-4-fluoro-phenyl]-amide hydrochloride] | 0.94
Cc1cnc(C(=O)Nc2ccc(F)c([C@]3(C(F)F)COCC(N)=N3)c2)s1 [Example 149, 5-Methyl-thiazole-2-carboxylic acid [3-((R)-5-amino-3-difluoromethyl-3,6-dihydro-2H-[1,4]oxazin-3-yl)-4-fluoro-phenyl]-amide hydrochloride] | 0.7
Cn1ccc(C(=O)Nc2ccc(F)c([C@]3(C(F)F)COCC(N)=N3)c2)n1 [Example 150, 1-Methyl-1H-pyrazole-3-carboxylic acid [3-((R)-5-amino-3-difluoromethyl-3,6-dihydro-2H-[1,4]oxazin-3-yl)-4-fluoro-phenyl]-amide hydrochloride] | 0.29
